Results: patent publication US4698330A, “Somnogenic compositions and method of use” (President & Fellows of Harvard College, priority 1983, dated 1987)

How the values were obtained:
[1] = tested on: rabbits; assay: Intraventricular infusion in rabbits, EEG slow-wave sleep (SWS); details: for % SWS, 6 hr post infusion, Expt: intraventricular, hr 2-6 after infusion, mean ± SEM or range
Method: Calibrated glass bead thermistors (Fenwall; 1.2-mm outside diameter, 50 omega/°C.) were implanted through burr holes in frontal bone: the thermistor leads were buried in a mound of dental cement that also insulated the screw electrodes and supported a 9-pin miniature electrical connector. In some experiments, the rectal temperatures were measured at intervals by using a calibrated thermistor probe; temperatures estimated from the implanted brain thermistors were generally within 0.3° C. of simultaneously recorded rectal temperature.
New Zealand rabbits (male, 3-5 kg) or domestic cats were adapted to the infusion cages in a temperature-controlled room (21°-2° C.) on a 12:12 light/dark cycle. Intraventricular infusions or systemic injections were carried out between 0800 and 1000 hr and were followed by 6 or more hr of recording without disturbing the animals.
EEG, electro-oculogram, and bodily movements were recorded on Grass polygraphs. The amplitude of EEG slow waves was recorded as the rms-rectified output from a 0.5- to 4-Hz bandpass filter (Bunco Electronics, Sharon, (T); the rms component was integrated and the integral was printed on tape every 2 min, thus providing an objective measure of the product of amplitude and duration of EEG slow waves. Each record was also analyzed visually for duration of SWS in rabbits and for both SWS and REM sleep in cats. The infusion and recording systems and examples of analysis of records are described in 1, 12, 15.

[2] = tested on: rabbits; assay: Antipyretic (acetaminophen, indomethacin, aspirin) with AcMur-ala-igln in rabbits, SWS and temperature; assay type: in vivo; details: for suppression of the pyrogenic (febrile) effects of AcMur-ala-igln by the antipyretic: AcMur-ala-igln delivered intravenously in rabbits
Method: Acetaminophen (Sigma) was dissolved in sterile pyrogen-free saline.
For this reason, the less toxic acetaminophen was used to suppress the pyrogenic effects of AcMur-ala-igln.
In FIG. 5, the symbols mean the following: , AAP alone; , AAP followed by 120 μg of AcMur-ala-igln intravanously at time zero. Each value is mean ±SEM of six assays in six rabbits. In A, the average of the individual increases (ΔT values) in rectal temperature induced by AcMur-ala-igln together with AAP is compared with that induced by AAP alone in each of six rabbits.

[3] = tested on: rabbits; assay: Toxic reactions to indomethacin alone in rabbits; assay type: in vivo, rabbit; details: doses as low as 1 mg/kg
Method: (§1) The time course of the pyrogenic response to AcMur-ala-igln was sometimes quite different from that of the somnogenic response and, in some animals, the natural muramyl peptide isolated from urine induced substantial excess SWS without significant alteration of temperature. […] In preliminary experiments, indomethacin was used as an antipyretic because Parant et al. (7) had shown that this drug (in doses of 40 mg/kg) was effective in blocking the pyrogenic response to intravanously administered AcMur-ala-igln. […] For this reason, the less toxic acetaminophen was used to suppress the pyrogenic effects of AcMur-ala-igln. The results for six rabbits injected intravanously with AcMur-ala-igln at 120 μg/kg 30 min after intravanous injection of acetaminophen at 10 mg/kg are summarized in FIG. 5. It is clear that, under these conditions a substantial somnogenic effect was obtained for 3 to 4 hr with only a weak associated febrile response. In some animals, there was no significant increase in temperature during the sleep response.

[4] = tested on: cats; assay: Toxic reactions to indomethacin alone in cats; assay type: in vivo, cat; details: doses as low as 1 mg/kg
Method: as §1

Structure (SMILES): CC(=O)NC1C(O)OC(CO)C(O)C1OC(C)C(=O)NC(C)C(=O)NC(CCC(=O)O)C(N)=O [NAc--Mur--D-ala-D-igln]
- % SWS, 6 hr post infusion, Expt ([1]; dose 0.5 nmol): 35 ± 2%
- % SWS, 6 hr post infusion, Expt ([1]; dose 1.0 nmol): 35 ± 2%

Structure (SMILES): CC(=O)N[C@H]1C(O)O[C@H](CO)[C@@H](O)[C@@H]1O[C@H](C)C(=O)N[C@@H](C)C(=O)N[C@H](CCC(N)=O)C(=O)O (stereo partly drawn) [NAc--Mur--L-ala-D-gln, NAc-Mur-L-ala-D-gln]
- % SWS, 6 hr post infusion, Expt ([1]; dose 2.0 nmol): 45 ± 1%
- % SWS, 6 hr post infusion, Expt ([1]; dose 20.0 nmol): 58-66%

Structure (SMILES): CC(=O)N[C@H]1C(O)O[C@H](CO)[C@@H](O)[C@@H]1O[C@H](C)C(=O)N[C@@H](C)C(=O)N[C@H](CCC(=O)N[C@@H](CCC[C@@H](N)C(=O)O)C(=O)N[C@H](C)C(=O)N[C@H](C)C(=O)O)C(=O)O (stereo partly drawn) [NAc-Mur-L-ala-gamma-D-glu-m-DAP-D-ala-D-ala]
- % SWS, 6 hr post infusion, Expt ([1]; dose 0.15 nmol): 46 ± 3%
- % SWS, 6 hr post infusion, Expt ([1]; dose 0.2 nmol): 65 ± 5%

Structure (SMILES): CC(=O)N[C@H]1C(O)O[C@H](CO)[C@@H](O)[C@@H]1O[C@H](C)C(=O)N[C@@H](C)C(=O)N[C@H](CCC(N)=O)C(N)=O (stereo partly drawn) [NAc--Mur--L-ala-D-glu(NH2)--NH2]
- % SWS, 6 hr post infusion, Expt ([1]; dose 2.0 nmol): 43 ± 1%

Structure (SMILES): CC(=O)Oc1ccccc1C(=O)O [aspirin, acetyl salicylic acid]
- suppression of the pyrogenic (febrile) effects of AcMur-ala-igln by the antipyretic [2]: like suppression of the febrile response

Structure (SMILES): CC(=O)N[C@H]1C(O)O[C@H](CO)[C@@H](O)[C@@H]1O[C@H](C)C(=O)N[C@@H](C)C(=O)N[C@H](CCC(=O)O)C(=O)O (stereo partly drawn) [NAc--Mur--L-ala-D-glu, NAc-Mur-L-ala-D-glu]
- % SWS, 6 hr post infusion, Expt ([1]; dose 0.2 nmol): 43 ± 3%
- % SWS, 6 hr post infusion, Expt ([1]; dose 2.0 nmol): 51 ± 3%

Structure (SMILES): CC(=O)Nc1ccc(O)cc1 [acetaminophen]
- effects on sleep or rectal temperature ([2]; AAP alone): no significant effects
- hourly % SWS (mean ±SEM) ([2]; AAP alone, 10 mg/kg intravenous, six rabbits, FIG. 5): 41±3%
- suppression of the pyrogenic (febrile) effects of AcMur-ala-igln by the antipyretic [2]: completely or partially suppressed

Structure (SMILES): CC(=O)N[C@H]1C(O)O[C@H](CO)[C@@H](O)[C@@H]1O[C@H](C)C(=O)N[C@@H](C)C(=O)N[C@@H](CCC(=O)O)C(N)=O (stereo partly drawn) [NAc--Mur--L-ala-L-igln]
- % SWS, 6 hr post infusion, Expt ([1]; dose 0.2 nmol): 38 ± 4%

Structure (SMILES): CC(=O)NC1C(OC2C(CO)OC(O)C(NC(C)=O)C2OC(C)C(=O)NC(C)C(=O)NC(CCC(=O)O)C(N)=O)OC(CO)C(O)C1O (centres unmarked) [Nac--glc-1,4-MDP, NAc-glucosaminyl-(1,4)-MDP]
- % SWS, 6 hr post infusion, Expt ([1]; dose 0.2 nmol): 60 ± 5%

Structure (SMILES): COC(=O)[C@@H](CCC(=O)O)NC(=O)[C@H](C)NC(=O)[C@@H](C)O[C@H]1[C@H](O)[C@@H](CO)OC(O)[C@@H]1NC(C)=O (stereo partly drawn) [NAc--Mur--L-ala-D-glu-alpha-OMe, NAc-Mur-L-ala-D-glu-alpha-OMe]
- % SWS, 6 hr post infusion, Expt ([1]; dose 0.2 nmol): 47-61%
- % SWS, 6 hr post infusion, Expt ([1]; dose 2.0 nmol): 72 ± 4%

Structure (SMILES): CC(=O)N[C@H]1C(O)O[C@H](CO)[C@@H](O)[C@@H]1O[C@H](C)C(=O)N(C)[C@@H](C)C(=O)N[C@H](CCC(=O)O)C(N)=O (stereo partly drawn) [NAc--Mur--(N--Me)--L-ala-D-igln]
- % SWS, 6 hr post infusion, Expt ([1]; dose 0.2 nmol): 32-47%

Structure (SMILES): COC(=O)CC[C@@H](NC(=O)[C@H](C)NC(=O)C(C)O[C@H]1[C@H](O)[C@@H](CO)O[C@H](O)[C@@H]1NC(C)=O)C(=O)OC (stereo partly drawn) [NAc--Mur--L-ala-D-glu(OMe)--OMe, NAc-Mur-L-ala-D-glu(OMe)-OMe]
- % SWS, 6 hr post infusion, Expt ([1]; dose 2.0 nmol): 66 ± 4%

Structure (SMILES): COc1ccc2c(c1)c(CC(=O)O)c(C)n2C(=O)c1ccc(Cl)cc1 [indomethacin]
- blocking of the pyrogenic or somnogenic effects of intraventricularly administered AcMur-ala-igln ([2]; indomethacin: 10 out of 10 trials in six rabbits, acetaminophen: two rabbits): did not block
- toxic reactions (diarrhea, lethargy, inhibition of normal sleep) [3]: toxic reactions
- toxic reactions (diarrhea, lethargy, inhibition of normal sleep) [4]: toxic reactions

Structure (SMILES): COC(=O)CC[C@@H](NC(=O)[C@H](C)NC(=O)[C@@H](C)O[C@H]1[C@H](O)[C@@H](CO)OC(O)[C@@H]1NC(C)=O)C(N)=O (stereo partly drawn) [NAc--Mur--L-ala-D-igln-gamma-OMe, NAc-Mur-L-ala-D-igln-gamma-OMe]
- % SWS, 6 hr post infusion, Expt ([1]; dose 2.0 nmol): 56 ± 7%

Structure (SMILES): CCCCOC(=O)[C@@H](CCC(N)=O)NC(=O)[C@H](C)NC(=O)[C@@H](C)O[C@H]1[C@H](O)[C@@H](CO)OC(O)[C@@H]1NC(C)=O (stereo partly drawn) [NAc--Mur--L-ala-D-gln-n-Bu ester]
- % SWS, 6 hr post infusion, Expt ([1]; dose 0.25 nmol): 41-47%

Structure (SMILES): COC(=O)[C@@H](CCC(N)=O)NC(=O)[C@H](C)NC(=O)[C@@H](C)O[C@H]1[C@H](O)[C@@H](CO)OC(O)[C@@H]1NC(C)=O (stereo partly drawn) [NAc--Mur--L-ala-D-gln-alpha OMe]
- % SWS, 6 hr post infusion, Expt ([1]; dose 0.5 nmol): 31-45%

Structure (SMILES): CC(=O)N[C@H]1C(O)O[C@H](CO)[C@@H](O)[C@@H]1O[C@H](C)C(=O)O (some centres unmarked) [N-acetylmuramic acid, reference compound]
- somnogenic effect ([1]; summary of Table 2, intraventricular, rabbits): no effect
